This is an account of results in patent US20090111820A1, “FUSED PYRROLIDINE 1,2,4-TRIAZOLE DERIVATIVES AS MODULATORS OF MGLUR5” (priority 2007, published 2009).

For data set [1], the target named is T1, human mGluR5d (Homo sapiens, UniProt P41594).
T1 construct: expressed in transfected cells; It is kept under hygromycin B and Zeocin selection; The separate IP3 assay names GHEK cells
Description: FLIPR assay, mGluR5 antagonism (intracellular calcium mobilization). The class given is cell-based. Particulars: cells expressing human mGluR5d; fluo-3 calcium signal; read-out: FLIPR hmGluR5d. From the text: Functional Assessment of mGluR5 Antagonism in Cell Lines Expressing mGluR5D
The properties of the compounds of the invention can be analyzed using standard assays for pharmacological activity. Examples of glutamate receptor assays are well known in the art as described in for example Aramori et al., Neuron 8:757 (1992), Tanabe et al., Neuron 8:169 (1992), Miller et al., J. Neuroscience 15: 6103 (1995), Balazs, et al., J. Neurochemistry 69:151 (1997). The methodology described in these publications is incorporated herein by reference. Conveniently, the compounds of the invention can be studied by means of an assay (FLIPR) that measures the mobilization of intracellular calcium, [Ca^2+], in cells expressing mGluR5 or another assay (IP3) that measures inositol phosphate turnover.
Cells expressing human mGluR5d as described in WO97/05252 cultured in a mixture of high glucose DMEM with Glutamax (31966-021) (500 mL), 10% dialyzed fetal bovine serum (Hyclone #SH30079.03) (56 mL), 200 μg/mL Hygromycin B (Invitrogen 45-0430, 50 mg/mL)(2.2 mL), 200 μg/mL Zeocin (Invitrogen #R250-01; 100 mg/mL)(1.1 mL) are seeded at a density of 100,000 cells per well on collagen coated clear bottom 96-well plates with black sides and cells were allowed to adhere over night before experiments. All assays are done in a buffer containing 146 mM NaCl, 5 mM KCl, 1 mM MgCl2, 1 mM CaCl2, 20 mM HEPES, 1 mg/mL glucose and 1 mg/mL BSA Fraction IV (pH 7.4). Cell cultures in the 96-well plates are loaded for 60 minutes in the above mentioned buffer containing 6 μM of the acetoxymethyl ester form of the fluorescent calcium indicator fluo-3 (Molecular Probes, Eugene, Oreg.) in 0.025% pluronic acid (a proprietary, non-ionic surfactant polyol -CAS Number 9003-11-6). Following the loading period the fluo-3buffer is removed and replaced with fresh assay buffer. FLIPR experiments are done using a laser setting of 0.700 W and a 0.4 second CCD camera shutter speed with excitation and emission wavelengths of 488 nm and 562 nm, respectively. Each experiment is initiated with 160 μl of buffer present in each well of the cell plate. A 40 μl addition from the antagonist plate was followed by a 50 μL addition from the agonist plate. A 30 minutes, in dark at 25° C., interval separates the antagonist and agonist additions. The fluorescence signal is sampled 50 times at 1-second intervals followed by 3 samples at 5-second intervals immediately after each of the two additions. Responses are measured as the difference between the peak heights of the response to agonist, less the background fluorescence within the sample period. IC50 determinations are made using a linear least squares fitting program.
(A change in cytosolic calcium serves as a functional read-out for many receptors and channels.)

Data set [2] in a line: Determination of brain to plasma ratio in rat. Particulars: brain and plasma, female Sprague Dawley rats, read-out: Brain/Plasma Ratio of compound in Rat. It counts as in vivo. The method, then: Determination of Brain to Plasma Ratio in Rat
Brain to plasma ratios are estimated in female Sprague Dawley rats. The compound is dissolved in water or another appropriate vehicle. For determination of brain to plasma ratio the compound is administrated as a subcutaneous, or an intravenous bolus injection, or an intravenous infusion, or an oral administration. At a predetermined time point after the administration a blood sample is taken with cardiac puncture. The rat is terminated by cutting the heart open, and the brain is immediately retained. The blood samples are collected in heparinized tubes and centrifuged within 30 minutes, in order to separate the plasma from the blood cells. The plasma is transferred to 96-well plates and stored at −20° C. until analysis. The brains are divided in half, and each half is placed in a pre-tarred tube and stored at −20° C. until analysis. Prior to the analysis, the brain samples are thawed and 3 mL/g brain tissue of distilled water is added to the tubes. The brain samples are sonicated in an ice bath until the samples are homogenized. Both brain and plasma samples are precipitated with acetonitrile. After centrifugation, the supernatant is diluted with 0.2% formic acid. Analysis is performed on a short reversed-phase HPLC column with rapid gradient elution and MSMS detection using a triple quadrupole instrument with electrospray ionisation and Selected Reaction Monitoring (SRM) acquisition. Liquid-liquid extraction may be used as an alternative sample clean-up. The samples are extracted, by shaking, to an organic solvent after addition of a suitable buffer. An aliquot of the organic layer is transferred to a new vial and evaporated to dryness under a stream of nitrogen. After reconstitution of the residuals the samples are ready for injection onto the HPLC column.

Structures are written as SMILES. Where only a bound is given, the exact number is not on record here.

T1 sequence (P41594 21-942 isoform P41594-3 limits assumed): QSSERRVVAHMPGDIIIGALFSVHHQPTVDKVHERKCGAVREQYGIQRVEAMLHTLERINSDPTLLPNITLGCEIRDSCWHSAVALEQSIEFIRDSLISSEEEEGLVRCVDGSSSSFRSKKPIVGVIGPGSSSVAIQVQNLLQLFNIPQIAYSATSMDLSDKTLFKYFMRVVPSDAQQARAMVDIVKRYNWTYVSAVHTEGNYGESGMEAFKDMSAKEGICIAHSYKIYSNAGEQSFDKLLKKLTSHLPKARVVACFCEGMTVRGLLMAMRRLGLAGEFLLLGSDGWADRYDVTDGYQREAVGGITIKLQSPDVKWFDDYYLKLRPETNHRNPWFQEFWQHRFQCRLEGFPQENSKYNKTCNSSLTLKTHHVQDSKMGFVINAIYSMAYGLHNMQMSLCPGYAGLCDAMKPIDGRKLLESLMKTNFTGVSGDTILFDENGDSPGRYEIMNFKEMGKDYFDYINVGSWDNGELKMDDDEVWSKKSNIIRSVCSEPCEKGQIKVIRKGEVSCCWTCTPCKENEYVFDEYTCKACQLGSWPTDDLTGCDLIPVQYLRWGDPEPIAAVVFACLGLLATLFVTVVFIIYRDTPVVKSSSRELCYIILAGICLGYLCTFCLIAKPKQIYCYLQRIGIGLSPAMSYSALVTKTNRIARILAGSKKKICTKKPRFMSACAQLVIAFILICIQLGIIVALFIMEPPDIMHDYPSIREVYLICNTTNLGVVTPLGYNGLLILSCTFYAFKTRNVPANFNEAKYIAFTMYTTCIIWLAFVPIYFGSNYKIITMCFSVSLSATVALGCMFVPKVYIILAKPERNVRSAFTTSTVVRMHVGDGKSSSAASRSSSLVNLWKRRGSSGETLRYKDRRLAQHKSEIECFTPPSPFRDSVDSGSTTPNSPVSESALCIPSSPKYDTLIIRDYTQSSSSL

For the compound `Cn1c(-c2cn[nH]c(=O)c2)nnc1N1[C@@H](c2cc(-c3cccc(Cl)c3)on2)C[C@H]2C[C@H]21` [Example 13.6, 5-(5-{(1R,3R,5R)-3-[5-(3-Chlorophenyl)isoxazol-3-yl]-2-azabicyclo[3.1.0]hex-2-yl}-4-methyl-4H-1,2,4-triazol-3-yl)pyridazin-3(2H)-one], the IC50 in data set [1] was 32 nM. Also, the Kp in data set [2] is less than 0.01.

As for `Cn1c(-c2cn[nH]c(=O)c2)nnc1N1C[C@H]2C[C@H]2[C@@H]1c1cc(-c2cccc(Cl)c2)on1` [Example 13.9, 5-(5-{(1R,2R,5S)-2-[5-(3-Chlorophenyl)isoxazol-3-yl]-3-azabicyclo[3.1.0]hex-3-yl}-4-methyl-4H-1,2,4-triazol-3-yl)pyridazin-3(2H)-one], in data set [1], the IC50 came to 46 nM. As to `Cn1c(-c2ccn(C)c(=O)c2)nnc1N1C[C@H]2C[C@H]2[C@@H]1c1cc(-c2cccc(Cl)c2)on1` [Example 13.8, 4-(5-{(1R,2R,5S)-2-[5-(3-Chlorophenyl)isoxazol-3-yl]-3-azabicyclo[3.1.0]hex-3-yl}-4-methyl-4H-1,2,4-triazol-3-yl)-1-methylpyridin-2(1H)-one], the IC50 in data set [1] was 51 nM.

On to `Cc1cccc(-c2cc([C@H]3C[C@H]4C[C@H]4N3c3nnc(-c4cn[nH]c(=O)c4)n3C)no2)c1` [Example 13.3, 5-(4-Methyl-5-{(1R,3R,5R)-3-[5-(3-methylphenyl)isoxazol-3-yl]-2-azabicyclo[3.1.0]hex-2-yl}-4H-1,2,4-triazol-3-yl)pyrimidin-3(2H)-one], for which, in data set [1], the IC50 turned out to be 71 nM. In the case of `Cc1cccc(-c2cc([C@H]3C[C@H]4C[C@H]4N3c3nnc(-c4ccn(C)c(=O)c4)n3C)no2)c1` [Example 13.1, 1-Methyl-4-(4-methyl-5-{(1R,3R,5R)-3-[5-(3-methylphenyl)isoxazol-3-yl]-2-azabicyclo[3.1.0]hex-2-yl}-4H-1,2,4-triazol-3-yl)pyridin-2(1H)-one], the IC50 in data set [1] was 73 nM. In data set [2], the Kp turned out to be 0.01. Take `Cn1c(-c2ccc(C(N)=O)cc2)nnc1N1[C@@H](c2cc(-c3cccc(Cl)c3)on2)C[C@H]2C[C@H]21` [Example 13.5, 4-(5-{(1R,3R,5R)-3-[5-(3-Chlorophenyl)isoxazol-3-yl]-2-azabicyclo[3.1.0]hex-2-yl}-4-methyl-4H-1,2,4-triazol-3-yl)benzamide]: the IC50 in data set [1] was 14 nM. As to `Cn1c(-c2ccn(C)c(=O)c2)nnc1N1[C@@H](c2cc(-c3cccc(Cl)c3)on2)C[C@H]2C[C@H]21` [Example 13.4, 4-(5-{(1R,3R,5R)-3-[5-(3-Chlorophenyl)isoxazol-3-yl]-2-azabicyclo[3.1.0]hex-2-yl}-4-methyl-4H-1,2,4-triazol-3-yl)-1-methylpyridin-2(1H)-one], in data set [1], the IC50 came out at 39 nM. The Kp in data set [2] is less than 0.01. `Cc1cccc(-c2cc([C@H]3C[C@H]4C[C@H]4N3c3nnc(-c4cc[nH]c(=O)n4)n3C)no2)c1` [Example 13.2, 4-(4-Methyl-5-{(1R,3R,5R)-3-[5-(3-methylphenyl)isoxazol-3-yl]-2-azabicyclo[3.1.0]hex-2-yl}-4H-1,2,4-triazol-3-yl)pyrimidin-2(1H)-one]: the IC50 in data set [1] came to 131 nM.
